Results on eleven compounds are retold here after ChEMBL document CHEMBL3272354, “Antifilarial agents. 1,2-Cyclobutanediamines as analogues of diethylcarbamazine. Status of structure-activity relationships among diethylcarbamazine analogues” (1977).

What all share (format): functional
Assay [1] has as its system Litomosoides carinii. Kind of assay: Antifilarial activity against Litomosoides carinii infected in gerbil assessed as microfilaria count at 25, 50, 100 and 200 mg/kg administered on days 0, 1, 2 and 3 respectively measured on day 11 relative to control.
The subject of assay [2] is Litomosoides carinii. Nature of the assay: Antifilarial activity against Litomosoides carinii infected in gerbil assessed as microfilaria count at 25, 50, 100 and 200 mg/kg administered on days 0, 1, 2 and 3 respectively measured on day 3 relative to control.
The subject of assay [3] is Litomosoides carinii. Kind of assay: Antifilarial activity against Litomosoides carinii infected in cotton rat assessed as reduction of microfilaria relative to control. On the set-up: scale not given: the % may be the effect or the level left.
The test system of assay [4] is Litomosoides carinii. Nature of the assay: Antifilarial activity against Litomosoides carinii infected in gerbil assessed as microfilaria count at 25, 50, 100 and 200 mg/kg administered on days 0, 1, 2 and 3 respectively measured on day 1 relative to control.
In assay [5] the test system is Litomosoides carinii. Kind of assay: Antifilarial activity against Litomosoides carinii infected in gerbil assessed as microfilaria count at 25, 50, 100 and 200 mg/kg administered on days 0, 1, 2 and 3 respectively measured on day 9 relative to control.
Assay [6] deals with Litomosoides carinii. Nature of the assay: Antifilarial activity against Litomosoides carinii infected in gerbil assessed as microfilaria count at 25, 50, 100 and 200 mg/kg administered on days 0, 1, 2 and 3 respectively measured on day 7 relative to control.
For assay [7], the system named is Litomosoides carinii. Nature of the assay: Antifilarial activity against Litomosoides carinii infected in gerbil assessed as microfilaria count at 25, 50, 100 and 200 mg/kg administered on days 0, 1, 2 and 3 respectively measured on day 14 relative to control.
Assay [8] concerns Litomosoides carinii. Kind of assay: Antifilarial activity against Litomosoides carinii infected in gerbil assessed as microfilaria count at 25, 50, 100 and 200 mg/kg administered on days 0, 1, 2 and 3 respectively measured on day 10 relative to control.
For assay [9], the system named is Litomosoides carinii. Kind of assay: Antifilarial activity against Litomosoides carinii infected in natal multimammate rat assessed as reduction of microfilaria relative to control. On the set-up: scale not given: the % may be the effect or the level left.
In assay [10] the test system is Litomosoides carinii. Nature of the assay: In vivo antifilarial activity against Litomosoides carinii.

With `CCN(CC)C(=O)N1CCN(C)CC1` [DIETHYLCARBAMAZINE], the Activity with Litomosoides carinii [1] is on record as 43%; in the assay with Litomosoides carinii [2], 0.1%; in the assay on Litomosoides carinii [3], 1%; in the assay on Litomosoides carinii [4] it was 6%; in the assay with Litomosoides carinii [5] it was 29%.
As for `CCOC(=O)N[C@H]1CC[C@@H]1N.Cl` (relative stereo), the Activity in the assay on Litomosoides carinii [2] came to 163%; with Litomosoides carinii [4], 107%; in the assay on Litomosoides carinii [6], 148%; in the assay on Litomosoides carinii [7], 153%; in the assay on Litomosoides carinii [8], 182%.
On to `CCOC(=O)N(C)[C@H]1CC[C@@H]1NC.O=C(O)/C=C\C(=O)O` (relative stereo), for which the Activity came to 160% with Litomosoides carinii [2]; 150% with Litomosoides carinii [4]; 150% in the assay with Litomosoides carinii [6]; 95% with Litomosoides carinii [5]; 165% in the assay with Litomosoides carinii [7].
For the compound `CCOC(=O)N[C@H]1CC[C@H]1N(C)C.O=C(O)/C=C\C(=O)O` (relative stereo), the Activity came to 59% in the assay with Litomosoides carinii [2]; 127% with Litomosoides carinii [4]; 169% in the assay on Litomosoides carinii [6]; 154% in the assay with Litomosoides carinii [5]; 199% in the assay on Litomosoides carinii [7].
For the compound `CCOC(=O)N[C@H]1CC[C@@H]1NC.Cl`, the Activity is reported as 113% in the assay on Litomosoides carinii [2]; 101% in the assay with Litomosoides carinii [4]; 122% in the assay with Litomosoides carinii [6]; 99% with Litomosoides carinii [5]; 151% in the assay on Litomosoides carinii [7].
`CCOC(=O)N[C@H]1CC[C@@H]1NC(=O)OCC` (relative stereo): the Activity turned out to be 236% with Litomosoides carinii [2]; 189% in the assay on Litomosoides carinii [4]; 201% in the assay with Litomosoides carinii [6]; 240% in the assay on Litomosoides carinii [5]; 208% in the assay with Litomosoides carinii [7].
The corresponding values for `CCN(CC)C(=O)N(C)[C@H]1CC[C@@H]1N(C)C.O=C(O)/C=C\C(=O)O` (relative stereo) are 99%, 185%, 174%, 159% and 100%.
The corresponding values for `CCN(CC)C(=O)N[C@H]1CC[C@@H]1N(C)C.O=C(O)CC(O)(CC(=O)O)C(=O)O` (relative stereo) are 113%, 106%, 111%, 137% and 161%.
Consider `CN1CCN(C(=O)C2CCCCC2)CC1` [PEXANTEL], for which, in the assay with Litomosoides carinii [9], the Activity was found to be 1%.
With `CCOC(=O)N[C@H]1CC[C@@H]1N(C)C.O=C(O)/C=C\C(=O)O` (relative stereo), the Activity with Litomosoides carinii [2] was determined as 190%; with Litomosoides carinii [4], 96%; in the assay with Litomosoides carinii [6], 158%; in the assay with Litomosoides carinii [5], 133%; with Litomosoides carinii [7], 213%.
Compound `CCN(CC)C(=O)N1CCCN(C)CC1` gave an Activity in the assay with Litomosoides carinii [10] of 1%.
